For this experiment, the system named is Ha-CoV-2(Luc). As to the kind of experiment: microbe, parasite or virus in culture. The format is cell-based, SARS-CoV-2. The note with it: Severe acute respiratory syndrome coronavirus 2, HEK-293T, read-out: IC50 (inhibition of Ha-CoV-2(Luc) infection).

Data on one compound can be found in US11473064B2, “Hybrid alphavirus-SARS-CoV-2 particle and methodology of making and using same” (GEORGE MASON RESEARCH FOUNDATION, INC., priority 2020, dated 2022).

Consider `CCOC(=O)c1c(CSc2ccccc2)n(C)c2cc(Br)c(O)c(CN(C)C)c12` [Arbidol, Arbidol (Umifenovir)], for which the half-maximal inhibitory concentration (IC50) amounted to 16 µM.

What is called IC50 is the point on the concentration scale where inhibition reaches its midpoint.
